Laboratory results: patent US11987586B1 (TAKEDA PHARMACEUTICAL COMPANY LIMITED, priority 2022, dated 2024)

Target: T1, human OX2 receptor (Homo sapiens, UniProt O43614)
T1 construct: expressed in transfected cells
T1 sequence (O43614 1-444): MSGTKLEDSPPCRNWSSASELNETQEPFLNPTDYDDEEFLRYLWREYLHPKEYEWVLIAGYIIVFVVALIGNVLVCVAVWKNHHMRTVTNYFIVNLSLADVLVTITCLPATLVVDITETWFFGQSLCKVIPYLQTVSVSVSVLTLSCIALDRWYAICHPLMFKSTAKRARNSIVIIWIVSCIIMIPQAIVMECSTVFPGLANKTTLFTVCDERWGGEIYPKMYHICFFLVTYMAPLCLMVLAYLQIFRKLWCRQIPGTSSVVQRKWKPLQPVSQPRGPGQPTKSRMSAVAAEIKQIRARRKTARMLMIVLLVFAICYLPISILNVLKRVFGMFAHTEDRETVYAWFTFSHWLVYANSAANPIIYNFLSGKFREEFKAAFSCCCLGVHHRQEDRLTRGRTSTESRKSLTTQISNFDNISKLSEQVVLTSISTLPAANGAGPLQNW
Test: Measurement of orexin type 2 receptor agonist activity (calcium fluorescence, Fluo-4, FDSS)
Type: cell-based
Settings: 3 uM test compound; CHO cells expressing human OX2 receptor; DMSO = 0%, 10 nM orexin A (human) = 100%
Summary of the method: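 Agonist activity (%) was normalised to the response to 10 nM final human orexin A (100%) and to the DMSO vehicle (0%). The response was measured as the Fluo-4 calcium signal, read kinetically over 1 min 40 s after compound addition to Fluo-4/probenecid-loaded stable CHO-K1 clones expressing human OX2 (aa 1-444).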

Structure (SMILES) | OX2R agonist activity (3 uM, %) [%]
Cc1cc2onc(N3CC[C@H]4N(C[C@@H](NS(C)(=O)=O)C4(F)F)C3=O)c2c(-c2c(F)cc(F)cc2F)n1 [Example 248, N-{(4aR,6R)-5,5-difluoro-2-[6-methyl-4-(2,4,6-trifluorophenyl)[1,2]oxazolo[4,5-c]pyridin-3-yl]-1-oxooctahydropyrrolo[1,2-c]pyrimidin-6-yl}methanesulfonamide] | 107
CCOc1cc(-c2c(F)cc(F)cc2F)c2c(N3CC[C@H]4N(C[C@@H](NS(=O)(=O)C5CC5)C4(F)F)C3=O)noc2c1 [Example 249, N-{(4aR,6R)-2-[6-ethoxy-4-(2,4,6-trifluorophenyl)-1,2-benzoxazol-3-yl]-5,5-difluoro-1-oxooctahydropyrrolo[1,2-c]pyrimidin-6-yl}cyclopropanesulfonamide] | 102
COc1cc(-c2c(F)cc(F)cc2F)c2c(-n3cc4n(c3=O)C[C@@H](NS(C)(=O)=O)C4(F)F)noc2n1 [Example 250, N-{(6R)-7,7-difluoro-2-[6-methoxy-4-(2,4,6-trifluorophenyl)[1,2]oxazolo[5,4-b]pyridin-3-yl]-3-oxo-2,5,6,7-tetrahydro-3H-pyrrolo[1,2-c]imidazol-6-yl}methanesulfonamide] | 99
CS(=O)(=O)N[C@H]1C[C@H]2CCN(c3noc4cc(C(F)(F)F)cc(-c5c(F)cccc5F)c34)C(=O)N2C1 [Example 251, N-{(4aR,6S)-2-[4-(2,6-difluorophenyl)-6-(trifluoromethyl)-1,2-benzoxazol-3-yl]-1-oxooctahydropyrrolo[1,2-c]pyrimidin-6-yl}methanesulfonamide] | 109
CS(=O)(=O)N[C@@H]1CN2C(=O)N(c3noc4cc(F)c(F)c(-c5c(F)cccc5F)c34)CC[C@@H]2C1(F)F [Example 252, N-{(4aR,6R)-2-[4-(2,6-difluorophenyl)-5,6-difluoro-1,2-benzoxazol-3-yl]-5,5-difluoro-1-oxooctahydropyrrolo[1,2-c]pyrimidin-6-yl}methanesulfonamide] | 96
CS(=O)(=O)N[C@H]1C[C@H]2CCN(c3noc4cc(F)cc(-c5c(F)cccc5F)c34)C(=O)N2C1 [Example 253, N-{(4aR,6S)-2-[4-(2,6-difluorophenyl)-6-fluoro-1,2-benzoxazol-3-yl]-1-oxooctahydropyrrolo[1,2-c]pyrimidin-6-yl}methanesulfonamide] | 101
CCS(=O)(=O)N[C@@H]1CN2C(=O)N(c3noc4cc(F)cc(-c5ncc(F)cc5F)c34)CC[C@@H]2C1(F)F [Example 254, N-{(4aR,6R)-2-[4-(3,5-difluoropyridin-2-yl)-6-fluoro-1,2-benzoxazol-3-yl]-5,5-difluoro-1-oxooctahydropyrrolo[1,2-c]pyrimidin-6-yl}ethanesulfonamide] | 95
CCS(=O)(=O)N[C@@H]1CN2C(=O)N(c3noc4cc(OC(F)F)cc(-c5c(F)cccc5F)c34)CC[C@@H]2C1(F)F [Example 255, N-{(4aR,6R)-2-[6-(difluoromethoxy)-4-(2,6-difluorophenyl)-1,2-benzoxazol-3-yl]-5,5-difluoro-1-oxooctahydropyrrolo[1,2-c]pyrimidin-6-yl}ethanesulfonamide] | 107
O=C1N(c2noc3cc(OC(F)F)cc(-c4c(F)cccc4F)c23)CC[C@H]2N1C[C@@H](NS(=O)(=O)C1CC1)C2(F)F [Example 256, N-{(4aR,6R)-2-[6-(difluoromethoxy)-4-(2,6-difluorophenyl)-1,2-benzoxazol-3-yl]-5,5-difluoro-1-oxooctahydropyrrolo[1,2-c]pyrimidin-6-yl}cyclopropanesulfonamide] | 103
CNS(=O)(=O)N[C@@H]1Cn2c(cn(-c3noc4cc(C)nc(-c5c(F)cc(F)cc5F)c34)c2=O)C1(F)F [Example 257, N-{(6R)-7,7-difluoro-2-[6-methyl-4-(2,4,6-trifluorophenyl)[1,2]oxazolo[4,5-c]pyridin-3-yl]-3-oxo-2,5,6,7-tetrahydro-3H-pyrrolo[1,2-c]imidazol-6-yl}-N′-methylsulfuric diamide] | 110
Cc1cc(-c2c(F)cc(F)cc2F)c2c(N3CC[C@H]4N(C[C@@H](NS(C)(=O)=O)C4(F)F)C3=O)noc2n1 [Example 258, N-{(4aR,6R)-5,5-difluoro-2-[6-methyl-4-(2,4,6-trifluorophenyl)[1,2]oxazolo[5,4-b]pyridin-3-yl]-1-oxooctahydropyrrolo[1,2-c]pyrimidin-6-yl}methanesulfonamide] | 100
CS(=O)(=O)N[C@@H]1CN2C(=O)N(c3noc4cc(Cl)cc(-c5c(F)cccc5F)c34)CC[C@@H]2C1(F)F [Example 259, N-{(4aR,6R)-2-[6-chloro-4-(2,6-difluorophenyl)-1,2-benzoxazol-3-yl]-5,5-difluoro-1-oxooctahydropyrrolo[1,2-c]pyrimidin-6-yl}methanesulfonamide] | 96
CCS(=O)(=O)N[C@@H]1CN2C(=O)N(c3noc4cccc(-c5c(F)cc(F)cc5F)c34)CC[C@@H]2C1(F)F [Example 260, N-{(4aR,6R)-5,5-difluoro-1-oxo-2-[4-(2,4,6-trifluorophenyl)-1,2-benzoxazol-3-yl]octahydropyrrolo[1,2-c]pyrimidin-6-yl}ethanesulfonamide] | 108
CCS(=O)(=O)N[C@@H]1CN2C(=O)N(c3noc4cc(F)cc(-c5c(F)cc(F)cc5F)c34)CC[C@@H]2C1(F)F [Example 261] | 105
CCS(=O)(=O)N[C@@H]1CN2C(=O)N(c3noc4cccc(-c5c(F)cccc5F)c34)CC[C@@H]2C1(F)F [Example 262] | 114
CCS(=O)(=O)N[C@@H]1CN2C(=O)N(c3noc4cc(F)cc(-c5c(F)cccc5F)c34)CC[C@@H]2C1(F)F [Example 263, N-{(4aR,6R)-2-[4-(2,6-difluorophenyl)-6-fluoro-1,2-benzoxazol-3-yl]-5,5-difluoro-1-oxooctahydropyrrolo[1,2-c]pyrimidin-6-yl}ethanesulfonamide] | 114
CN(C)S(=O)(=O)N[C@@H]1Cn2c(cn(-c3noc4ccc(F)c(-c5c(F)cc(F)cc5F)c34)c2=O)C1(F)F [Example 264, N′-{(6R)-7,7-difluoro-2-[5-fluoro-4-(2,4,6-trifluorophenyl)-1,2-benzoxazol-3-yl]-3-oxo-2,5,6,7-tetrahydro-3H-pyrrolo[1,2-c]imidazol-6-yl}-N,N-dimethylsulfuric diamide] | 107
O=C1N(c2noc3cc(F)cc(-c4c(F)cc(F)cc4F)c23)C[C@H]2N1C[C@@H](NS(=O)(=O)CF)C2(F)F [Example 266] | 103
O=c1n(-c2noc3cc(C(F)F)cc(-c4c(F)cc(F)cc4F)c23)cc2n1C[C@@H](NS(=O)(=O)CF)C2(F)F [Example 267, N-{(6R)-2-[6-(difluoromethyl)-4-(2,4,6-trifluorophenyl)-1,2-benzoxazol-3-yl]-7,7-difluoro-3-oxo-2,5,6,7-tetrahydro-3H-pyrrolo[1,2-c]imidazol-6-yl}-1-fluoromethanesulfonamide] | 101
Cc1cc2onc(N3CC[C@H]4N(C[C@@H](NS(=O)(=O)C5CC5)C4(F)F)C3=O)c2c(-c2c(F)cccc2F)n1 [Example 268, N-{(4aR,6R)-2-[4-(2,6-difluorophenyl)-6-methyl[1,2]oxazolo[4,5-c]pyridin-3-yl]-5,5-difluoro-1-oxooctahydropyrrolo[1,2-c]pyrimidin-6-yl}cyclopropanesulfonamide] | 104
CCS(=O)(=O)N[C@@H]1CN2C(=O)N(c3noc4ccc(F)c(-c5c(F)cccc5F)c34)CC[C@@H]2C1(F)F [Example 269, N-{(4aR,6R)-2-[4-(2,6-difluorophenyl)-5-fluoro-1,2-benzoxazol-3-yl]-5,5-difluoro-1-oxooctahydropyrrolo[1,2-c]pyrimidin-6-yl}ethanesulfonamide] | 104
O=C1N(c2noc3ccc(F)c(-c4c(F)cccc4F)c23)CC[C@H]2N1C[C@@H](NS(=O)(=O)CF)C2(F)F [Example 270, N-{(4aR,6R)-2-[4-(2,6-difluorophenyl)-5-fluoro-1,2-benzoxazol-3-yl]-5,5-difluoro-1-oxooctahydropyrrolo[1,2-c]pyrimidin-6-yl}-1-fluoromethanesulfonamide] | 109
O=C1N(c2noc3cc(F)cc(-c4c(F)cccc4F)c23)CC[C@H]2N1C[C@@H](NS(=O)(=O)C1CC1)C2(F)F [Example 271, N-{(4aR,6R)-2-[4-(2,6-difluorophenyl)-6-fluoro-1,2-benzoxazol-3-yl]-5,5-difluoro-1-oxooctahydropyrrolo[1,2-c]pyrimidin-6-yl}cyclopropanesulfonamide] | 107
O=c1n(-c2noc3ccc(F)c(-c4c(F)cc(F)cc4F)c23)cc2n1C[C@@H](NS(=O)(=O)C1CC1)C2(F)F [Example 272, N-{(6R)-7,7-difluoro-2-[5-fluoro-4-(2,4,6-trifluorophenyl)-1,2-benzoxazol-3-yl]-3-oxo-2,5,6,7-tetrahydro-3H-pyrrolo[1,2-c]imidazol-6-yl}cyclopropanesulfonamide] | 109
